Results reported in publication PMC8231945, “Ingol and Ingenol-Type Diterpenes from Euphorbia trigona Miller with Keratinocyte Inhibitory Activity” (Plants, 2021).
Like-named read-outs stand apart in the source and are kept apart here.

Test system: HPV-Ker cells
Test: Viability test of HPV-Ker keratinocytes by real-time impedance monitoring (xCELLigence RTCA)
Assay type: cell-based, human
Conditions: for IC50: Homo sapiens, Keratinocyte; for cytotoxic effect against keratinocytes / keratinocyte inhibitory activity in vitro (overall verdict): HPV-Ker; for keratinocyte inhibitory activity in vitro (overall verdict): compared to ingenol mebutate
Excerpt: The main risk factor of induction of AK is UV irradiation. The UVB component of sunlight damages DNA, which might cause mutations in p53 and other tumor suppressor genes. Therefore, as an in vitro model of AK, we used the HPV-Ker cell line which contains the E6 oncoprotein of the human papillomavirus, leading to the degradation of the p53 tumor suppressor [26].
Since our compounds, especially the ingenol-derivatives, are structurally very similar to ingenol mebutate (Figure 3), we were interested in whether they have any effect on the viability of keratinocytes. The HPV-Ker cell line was treated with the isolated ingol- and ingenol-type diterpenoids with a concentration range of 5 × 10^−9–5 × 10^−4 M, the viability was measured with the xCELLigence System RTCA HT (Agilent Technologies, Santa Clara, CA, USA) instrument for 72 h, and data at 24 and 48 h were used for calculations (Table 1). IC50 values were calculated based on the sigmoidal dose–response formula.
The immortalized human keratinocyte cell line (HPV-Ker) was cultured in Keratinocyte-SFM supplemented with 5 ng/mL of recombinant epidermal growth factor, […] of bovine pituitary extract, and antibiotic/antimycotic solution in a CO2 thermostat at 37 °C.
The effect of the extracts and the purified compounds on HPV-Ker cells was investigated by real-time monitoring with the xCELLigence System RTCA HT Instrument (ACEA Biosciences, San Diego, CA, USA). 8 × 10^3 HPV-Ker cells were seeded in 96-well E-plates and keratinocytes were allowed to attach to the bottom of the wells and grow for 24 h. Cells were then treated with the indicated extract or substance for another 72 h. Real-time measurements of impedance were monitored every 15 min, then data at 24 and 48 h were used for calculations. The half-maximal inhibitory concentration (IC50) values for the compounds were calculated and GraphPad Prism 9.0 was used to plot results. All experiments were performed in duplicate, in three independent repeats.

[1] = HPV-Ker cell line, 24 h of treatment, ± SD, read-out: IC50 Value 24 h
[2] = HPV-Ker cell line, 48 h of treatment, ± SD, read-out: IC50 Value 48 h
[3] = HPV-Ker cells, RTCA normalized CI * hours, 24 h, read-out: IC50 (24h), Figure 4
[4] = HPV-Ker cells, RTCA normalized CI * hours, 48 h, read-out: IC50 (48h), Figure 4

SMILES: C/C=C(\C)C(=O)O[C@@H]1/C(C)=C/[C@@]23O[C@@]2(C[C@H](C)[C@@H]3OC(C)=O)C(=O)[C@H](C)[C@H](OC(C)=O)[C@@H]2[C@H]([C@@H]1OC)C2(C)C [Compound 2, 8-O-methyl-ingol 3,12-diacetate 7-tigliate]
- IC50 [1]: 17300 ± 1650 nM
- IC50 [2]: 14500 ± 3780 nM

SMILES: C/C=C(\C)C(=O)O[C@@H]1/C(C)=C/[C@@]23O[C@@]2(C[C@H](C)[C@@H]3OC(C)=O)C(=O)[C@H](C)[C@H](OC(C)=O)[C@@H]2[C@H]([C@@H]1O)C2(C)C [Compound 1, Ingol 3,12-diacetate 7-tigliate]
- IC50 [1]: 14200 ± 2850 nM
- IC50 [2]: 1720 ± 140 nM

SMILES: CO[C@H]1[C@H]2[C@@H]([C@@H](OC(C)=O)[C@@H](C)C(=O)[C@@]34C[C@H](C)[C@H](OC(C)=O)[C@]3(/C=C(\C)[C@H]1OC(=O)c1ccccc1)O4)C2(C)C [Compound 3, 8-O-methyl-ingol 3,12-diacetate 7-benzoate]
- IC50 Value 24 h (HPV-Ker cell line, 24 h of treatment, ± SD): inactive
- IC50 Value 48 h (HPV-Ker cell line, 48 h of treatment, ± SD): inactive

SMILES: C/C=C(/C)C(=O)O[C@H]1C(C)=C[C@]23C(=O)[C@@H](C=C(CO)[C@@H](O)[C@]12O)[C@H]1[C@@H](C[C@H]3C)C1(C)C [Ingenol mebutate, reference compound]
- cytotoxic effect against keratinocytes (0.5 µg/mL, 24 h): weaker, but still significant, cytotoxic effect
- cytotoxic effect against keratinocytes (0.5 µg/mL, 48 h): comparable to the treatment when 5 µg/mL was used for 48 h
- cytotoxic effect against keratinocytes (5 µg/mL, 24 h): strongest cytotoxic effect
- cytotoxic effect against keratinocytes (5 µg/mL, 48 h): lower cytotoxicity
- IC50 [1]: 840 ± 10 nM
- IC50 [2]: 960 ± 30 nM
- IC50 [3]: 844 nM
- IC50 [4]: 959 nM

SMILES: C/C=C(/C)C(=O)O[C@H]1C(C)=CC23C(=O)[C@@H](C=C(COC(C)=O)[C@@H](OC(C)=O)[C@]12O)[C@H]1[C@@H](C[C@H]3C)[C@@]1(C)COC(C)=O [Compound 7, 17-acetoxyingenol 3 angelate 5,20-diacetate]
- keratinocyte inhibitory activity in vitro (overall verdict): strong keratinocyte inhibitory activity
- IC50 [1]: 320 ± 20 nM
- IC50 [2]: 870 ± 70 nM
- IC50 [3]: 323 nM
- IC50 [4]: 873 nM

SMILES: C/C=C(/C)C(=O)O[C@H]1C(C)=CC23C(=O)[C@@H](C=C(C)[C@@H](O)[C@]12O)[C@H]1[C@@H](C[C@H]3C)[C@@]1(C)COC(C)=O [Compound 8, 17-acetoxy-20-deoxyingenol 3-angelate]
- IC50 [1]: 4320 ± 920 nM

SMILES: C/C=C(/C)C(=O)O[C@@H]1C(C)=C[C@@H]2C(=O)C3(C=C(C)[C@H](O)[C@@]13O)[C@H](C)C[C@@H]1[C@H]2[C@]1(C)COC(C)=O [Compound 9, 17-acetoxy-20-deoxyingenol 5-angelate]
- IC50 [1]: 14800 ± 3830 nM
- IC50 [2]: 7930 ± 1710 nM

SMILES: C/C=C(/C)C(=O)O[C@H]1C(C)=CC23C(=O)[C@@H](C=C(COC(C)=O)[C@@H](O)[C@]12O)[C@H]1[C@@H](C[C@H]3C)[C@@]1(C)COC(C)=O [Compound 6, 17-acetoxyingenol 3-angelate 20-acetate]
- keratinocyte inhibitory activity in vitro (overall verdict): strong keratinocyte inhibitory activity
- IC50 [1]: 390 ± 90 nM
- IC50 [2]: 320 ± 50 nM
